PubChem BioAssay AID652057 (Broad Institute, 2013)
Where “and” joins values, the source holds several entries; their conditions need not be identical. Equal entries are not always repeated.

Test system: HeLa-JRFL Env/CEM21 cell fusion, luciferase
Experiment: inhibitors of HIV Env-driven cell fusion, dose response, cherry-pick (AID 652057)

| SMILES | AC50 |
| --- | --- |
| C[C@H](CO)N1C[C@H](C)[C@H](CN(C)S(=O)(=O)c2ccccc2)Oc2ncc(/C=C/c3ccccc3)cc2C1=O | 9.21 µM and 1.6 µM |
| O=C(C[C@H]1C[C@H]2c3cc(NC(=O)c4ccc5c(c4)OCO5)ccc3O[C@H]2[C@H](CO)O1)NCc1ccc(Oc2ccccc2)cc1 | 35.1 µM |
